For series [1] the following is noted: 293.15 K; 101.33 kPa; Liquid.
Series [2] is described as follows: Boiling temperature at pressure P. The note with it: Liquid, Distillation.
Series [3] can be described thus: refractive index (Na D-line) (dimensionless). Particulars: 293.15 K; 101.33 kPa; Liquid; Standard Abbe refractometry.

Usually mass density stands for mass per unit of volume. Broadly, the refractive index is a measure of how strongly the sample bends light.

Numbers after ± are expanded uncertainties.

For `COC(=O)CCCC(=O)OC` [dimethyl pentanedioate], in series [1], the mass density was 1087.67 ± 0.76 kg/m3. Besides, the “Boiling temperature at pressure P” value in series [2] (101.33 kPa) was determined as 214.2 ± 0.2 °C. Moreover, the refractive index in series [3] was determined as 1.42454 ± 0.0007.
In the case of `CCCC(=O)O` [butanoic acid], in series [1], the mass density worked out at 952.8 ± 0.58 kg/m3. Also, the refractive index in series [3] turned out to be 1.3975 ± 0.0007.
Consider `COC(=O)CCCCC(=O)OC` [dimethyl 1,6-hexanedioate], for which the mass density in series [1] came to 1061.72 ± 0.67 kg/m3. Also, the “Boiling temperature at pressure P” value in series [2] (1.733 kPa) stood at 115 ± 1 °C. Besides, in series [3], the refractive index stood at 1.42825 ± 0.0007.
`COC(=O)CCC(=O)OC` [dimethyl 1,4-butanedioate]: in series [1], the mass density is reported as 1119.13 ± 2.3 kg/m3. The “Boiling temperature at pressure P” value in series [2] (101.33 kPa) was determined as 196.1 ± 0.2 °C. Further, in series [3], the refractive index is listed as 1.41969 ± 0.00078.

The values above are taken from the NIST ThermoML archive (doi:10.1016/j.jct.2006.07.002).
